Converted amounts (≈) assume the structure as drawn. Like-named read-outs stand apart in the source and are kept apart here.
Tests used:
[1] = target: T1, Human plasma kallikrein (Homo sapiens (Human), UniProt P03952); assay: Determination of the IC50 for plasma kallikrein; format: biochemical; conditions: 25° C., substrate H-DPro-Phe-Arg-AFC; read-out: IC50 (human PKal)
Procedure: (§1) Human plasma kallikrein (Protogen) was incubated at 25° C. with the fluorogenic substrate H-DPro-Phe-Arg-AFC and various concentrations of the test compound. Residual enzyme activity (initial rate of reaction) was determined by measuring the change in […] at 410 nm and the IC50 value for the test compound was determined.

[2] = target: Human KLK1 (Homo sapiens (Human), UniProt P06870); assay: Determination of the IC50 for KLK1; format: biochemical; conditions: 25° C., substrate H-DVal-Leu-Arg-AFC
Procedure: as §1, with “KLK1 (Callbiochem)” for “plasma kallikrein (Protogen)”, “H-DVal-Leu-Arg-AFC” for “H-DPro-Phe-Arg-AFC”

[3] = target: Human FXIa (Homo sapiens (Human), UniProt P03951); assay: Determination of the % inhibition / IC50 for FXIa; format: biochemical; conditions: for inhibition at 40 µM: 40 μM test compound, read-out: % Inhibition @ 40 μM (human FXIa); for IC50: 25° C., substrate Z-Gly-Pro-Arg-AFC
Procedure: FXIa inhibitory activity in vitro was determined using standard published methods (see e.g. Johansen et al., Int. J. Tiss. Reac. 1986, 8, 185; Shori et al., Biochem. Pharmacol., 1992, 43, 1209; Sturzebecher et al., Biol. Chem. Hoppe-Seyler, 1992, 373, 1025). […]

[4] = target: Human Factor XIIa (Homo sapiens (Human), UniProt P00748); assay: Factor XIIa inhibitory activity in vitro; format: biochemical; conditions: 25° C., substrate H-DPro-Phe-Arg-AFC; read-out: IC50 (human FXIIa)
Procedure: as §1, with “Factor XIIa (Enzyme Research Laboratories)” for “plasma kallikrein (Protogen)”

[5] = target: plasmin (Homo sapiens (Human), UniProt P00747); assay: Determination of enzyme selectivity: plasmin; format: biochemical; conditions: substrate at Km concentration
[6] = target: thrombin (Homo sapiens (Human), UniProt P00734); assay: Determination of enzyme selectivity: thrombin; format: biochemical; conditions: substrate at Km concentration
[7] = target: trypsin; assay: Determination of enzyme selectivity: trypsin; format: biochemical, human; conditions: substrate at Km concentration
Procedure: Human serine protease enzymes plasmin, thrombin and trypsin were assayed for enzymatic activity using an appropriate fluorogenic substrate. Protease activity was measured by monitoring the accumulation of liberated fluorescence from the substrate over 5 minutes. The linear rate of fluorescence increase per minute was expressed as percentage (%) activity. The Km for the cleavage of each substrate was determined by standard transformation of the Michaelis-Menten equation.

[8] = Solubility in water and 0.1N HCl (aq); format: physicochemical; conditions: thermodynamic from solid, incubated at 1 mg/mL, 37° C.
Procedure: Solubility was determined in water and 0.1N HCl (aq). Test compounds were incubated at 1 mg/mL for 24 hrs at 37° C. on a shaking platform (500 rpm). Samples were taken at 1, 4 and 24 hrs and centrifuged at 15,000 g for 10 min. Test compound concentration in the supernatant was determined by LCMS against a standard curve.

[9] = In vitro permeability, Caco-2 model for oral absorption; format: in vitro ADME; conditions: human, apical to basolateral, 50 μM test compound, 37° C.
How it was run: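 Caco-2 monolayers grown on collagen inserts for 3 days, with 50 μM compound added apically and incubated 1 hour at 37° C with shaking. Apical-to-basolateral transport measured by LCMS in both compartments. Monolayer integrity checked by TEER before and after, and by Lucifer Yellow flux.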

[10] = Intrinsic clearance in human liver microsomes; format: in vitro ADME; conditions: human liver microsomes 0.5 mg/mL, 5 μM test compound, 37° C.; read-out: Human liver microsome (Clint μL/min/mg protein)
Procedure: (§2) Rat or human liver microsomes (0.5 mg/mL; Corning) were incubated with 5 μM test compound at 37° C. on a shaking platform (150 rpm). Samples were taken at 0, 6, 12, 18, 24 and 60 min and test compound concentrations were determined by LCMS against a calibration curve.

[11] = Intrinsic clearance in rat liver microsomes; format: in vitro ADME; conditions: rat liver microsomes 0.5 mg/mL, 5 μM test compound, 37° C.; read-out: rat liver microsome (Clint μL/min/mg protein)
Procedure: as §2

[12] = Plasma protein binding (PPB), rapid equilibrium dialysis, human plasma; format: in vitro ADME; conditions: 5 μM test compound, dialysis 5 hrs at 37° C.
Procedure: The fraction unbound in plasma was determined using ThermoScientific™ Pierce™ Rapid Equilibrium Dialysis Technology (Single-Use plate with inserts, 8K MWCO). […] Reference samples from the non-dialysed plasma were taken before the incubation to enable an assessment of recovery. Test compound concentrations were determined in plasma and buffer compartments by LCMS against a calibration curve. […] Results are presented as percent plasma protein bound (% PPB).

[13] = Plasma protein binding (PPB), rapid equilibrium dialysis, rat plasma; format: in vitro ADME; conditions: 5 μM test compound, dialysis 5 hrs at 37° C.
Procedure: The fraction unbound in plasma was determined using ThermoScientific™ Pierce™ Rapid Equilibrium Dialysis Technology (Single-Use plate with inserts, 8K MWCO). 5 μM test compound was spiked into human or rat plasma (300 μL) and dialysed against 146.5 mM phosphate buffer (500 μL) for 5 hrs at 37° C., shaking at 1200 rpm. Reference samples from the non-dialysed plasma were taken before the incubation to enable an assessment of recovery. Test compound concentrations were determined in plasma and buffer compartments by LCMS against a calibration curve. The fraction unbound in plasma was determined using standard methodology (Waters N J et al (2008) J Pharm Sci 97(10); 4586-95). Results are presented as percent plasma protein bound (% PPB).

[14] = Predicted plasma clearance (Clp), well-stirred model, human; format: in vitro ADME; conditions: percentage of hepatic blood flow
Procedure: (§3) The predicted plasma clearance (Clp) is calculated using the well-stirred model (Rowland M, Benet L Z, and Graham G G. Clearance concepts in pharmacokinetics. J Pharmacokinet Biopharm. (1973) 1:123-136.), one of several models that can be used to extrapolate the in vitro data. The model assumes instantaneous and complete mixing of drug within the liver and is a function of intrinsic clearance, hepatic blood flow and free fraction of drug in the blood. The predicted plasma clearance in mL/min/kg is presented as a percentage of hepatic blood flow (LBF).

[15] = Predicted plasma clearance (Clp), well-stirred model, rat; format: in vitro ADME; conditions: percentage of hepatic blood flow
Procedure: as §3

[16] = target: T1, Human plasma kallikrein; assay: Determination of the Ki for plasma kallikrein (mixed-model inhibition); format: biochemical; conditions: for Ki: human plasma kallikrein, mixed-model inhibition equation; for Alpha: parameter of the mixed-model equation indicating mechanism of inhibition
Procedure: Plasma kallikrein inhibitory activity in vitro was determined using standard published methods (e.g. Johansen et al., Int. J. Tiss. Reac. 1986, 8, 185; Shori et al., Biochem. Pharmacol., 1992, 43, 1209; Sturzebecher et al., Biol. Chem. Hoppe-Seyler, 1992, 373, 1025). […]. Residual enzyme activity (initial rate of reaction) was determined by measuring the change in fluorescence at 410 nm. The Ki value for the test compound was determined using the mixed-model inhibition equation (based on Equation 3.2 in: RA Copeland, Evaluation of Enzyme Inhibitors in Drug Discovery, Wiley 2005) in GraphPad Prism. The mixed model equation includes competitive, uncompetitive and noncompetitive inhibition as special cases and the parameter of Alpha to indicate mechanism of inhibition.

[17] = simulated gastric fluid, 0.1N HCl (aq), read-out: Solubility 0.1N HCl (aq)
[18] = water, read-out: Solubility Water

T1 sequence (P03952 391-638): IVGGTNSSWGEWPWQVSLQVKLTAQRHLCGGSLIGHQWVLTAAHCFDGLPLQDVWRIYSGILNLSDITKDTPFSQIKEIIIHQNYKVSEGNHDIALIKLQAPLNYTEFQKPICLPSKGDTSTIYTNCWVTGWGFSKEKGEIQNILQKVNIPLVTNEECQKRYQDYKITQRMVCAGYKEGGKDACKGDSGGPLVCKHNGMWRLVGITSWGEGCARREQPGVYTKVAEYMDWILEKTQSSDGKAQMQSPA
T1 sequence (P03952 20-390): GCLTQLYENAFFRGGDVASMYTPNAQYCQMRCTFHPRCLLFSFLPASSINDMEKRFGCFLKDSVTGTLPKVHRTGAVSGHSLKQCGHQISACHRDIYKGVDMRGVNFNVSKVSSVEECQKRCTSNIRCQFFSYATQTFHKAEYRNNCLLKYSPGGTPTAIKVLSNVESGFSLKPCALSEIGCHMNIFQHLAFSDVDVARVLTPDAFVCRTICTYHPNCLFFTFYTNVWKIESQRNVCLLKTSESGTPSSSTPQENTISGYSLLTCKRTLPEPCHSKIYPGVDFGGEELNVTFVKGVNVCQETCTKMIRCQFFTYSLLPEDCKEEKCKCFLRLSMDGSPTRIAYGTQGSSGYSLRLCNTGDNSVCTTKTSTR
Chain of Human FXIa (P03951 388-625): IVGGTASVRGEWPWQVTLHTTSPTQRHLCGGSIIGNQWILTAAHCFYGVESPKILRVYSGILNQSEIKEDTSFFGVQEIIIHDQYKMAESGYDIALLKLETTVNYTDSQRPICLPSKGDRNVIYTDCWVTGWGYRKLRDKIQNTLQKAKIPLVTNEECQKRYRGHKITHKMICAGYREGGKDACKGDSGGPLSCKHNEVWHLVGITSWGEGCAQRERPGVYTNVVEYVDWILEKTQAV
Chain of Human FXIa (P03951 19-387): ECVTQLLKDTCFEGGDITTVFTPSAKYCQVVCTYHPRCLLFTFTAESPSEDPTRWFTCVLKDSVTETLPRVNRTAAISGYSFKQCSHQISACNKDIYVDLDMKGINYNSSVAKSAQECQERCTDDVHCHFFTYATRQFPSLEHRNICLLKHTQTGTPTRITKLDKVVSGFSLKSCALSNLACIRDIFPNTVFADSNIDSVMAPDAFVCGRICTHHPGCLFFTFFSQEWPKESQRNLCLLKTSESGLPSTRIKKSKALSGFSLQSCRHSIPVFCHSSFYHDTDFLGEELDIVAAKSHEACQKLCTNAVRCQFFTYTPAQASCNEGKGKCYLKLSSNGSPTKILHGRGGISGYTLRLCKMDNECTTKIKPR
Chain of Human Factor XIIa (P00748 373-615): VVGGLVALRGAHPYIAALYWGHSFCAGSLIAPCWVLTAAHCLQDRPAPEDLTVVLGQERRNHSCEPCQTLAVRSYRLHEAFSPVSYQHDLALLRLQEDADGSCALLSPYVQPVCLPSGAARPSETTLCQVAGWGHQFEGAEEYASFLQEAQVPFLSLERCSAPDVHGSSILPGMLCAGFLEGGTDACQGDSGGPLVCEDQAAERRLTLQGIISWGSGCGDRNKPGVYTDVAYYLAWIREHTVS
Chain of Human KLK1 (P06870 25-262): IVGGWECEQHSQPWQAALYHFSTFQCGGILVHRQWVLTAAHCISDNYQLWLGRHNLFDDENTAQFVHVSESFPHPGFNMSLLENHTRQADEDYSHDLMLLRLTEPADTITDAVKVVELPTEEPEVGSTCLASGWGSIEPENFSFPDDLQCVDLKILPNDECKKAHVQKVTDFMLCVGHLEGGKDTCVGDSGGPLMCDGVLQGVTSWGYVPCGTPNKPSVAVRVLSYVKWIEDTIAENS
Chain of plasmin (P00747 581-810): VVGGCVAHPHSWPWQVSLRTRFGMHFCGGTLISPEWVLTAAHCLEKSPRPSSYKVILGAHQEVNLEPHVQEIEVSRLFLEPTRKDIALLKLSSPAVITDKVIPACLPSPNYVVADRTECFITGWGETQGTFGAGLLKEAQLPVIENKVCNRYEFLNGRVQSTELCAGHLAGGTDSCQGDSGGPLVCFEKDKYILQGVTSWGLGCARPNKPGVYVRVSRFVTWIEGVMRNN
Chain of plasmin (P00747 97-580): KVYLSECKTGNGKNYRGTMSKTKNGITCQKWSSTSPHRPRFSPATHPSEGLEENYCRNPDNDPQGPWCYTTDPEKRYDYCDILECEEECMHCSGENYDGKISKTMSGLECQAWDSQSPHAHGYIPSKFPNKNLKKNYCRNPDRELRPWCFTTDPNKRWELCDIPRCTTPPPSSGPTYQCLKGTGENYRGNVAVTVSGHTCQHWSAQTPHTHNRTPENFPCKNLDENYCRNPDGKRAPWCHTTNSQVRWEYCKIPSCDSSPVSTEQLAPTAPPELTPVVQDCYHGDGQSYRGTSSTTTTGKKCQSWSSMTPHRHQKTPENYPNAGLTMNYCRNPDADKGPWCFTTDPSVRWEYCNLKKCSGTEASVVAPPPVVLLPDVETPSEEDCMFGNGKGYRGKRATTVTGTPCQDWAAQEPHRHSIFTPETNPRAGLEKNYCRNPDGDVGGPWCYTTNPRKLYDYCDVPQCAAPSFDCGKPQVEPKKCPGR

Row | IC50 [1] | IC50 [2] | inhibition at 40 µM [3] | IC50 [3] | IC50 [4] | IC50 [5] | IC50 [6] | IC50 [7] | solubility [8, 17] | solubility [8, 18] | Papp at 1 h, 50 μM [9] | microsomal CLint at 5 μM [10] | microsomal CLint at 5 μM [11] | fraction unbound at 5 h, 5 μM [12] | fraction unbound at 5 h, 5 μM [13] | Predicted in vivo human Clp (% LBF) [14] | Predicted in vivo rat Clp (% LBF) [15] | Ki [16] | Alpha [16] | inhibition at 12.7 µM ([3]; 12.7 μM test compound) | SMILES
1 | 0.283 µM | > 40 µM | 7% | > 40 µM | > 40 µM | > 40 µM | > 40 µM | > 40 µM |  |  | 20 ×10⁻⁶ cm/s | 48 µL/min/mg | 73 µL/min/mg | 0.08 | 0.05 | 16 % LBF | 11 % LBF |  |  |  | COCc1nn(Cc2ccc(Cn3ccccc3=O)cc2)cc1C(=O)NCc1cc(OC)ccc1C#N [Example 37, N-[(2-cyano-5-methoxyphenyl)methyl]-3-(methoxymethyl)-1-({4-[(2-oxopyridin-1-yl)methyl]phenyl}methyl)pyrazole-4-carboxamide]
2 | 0.0004 µM | > 40 µM | 20% | > 40 µM | > 40 µM | > 40 µM | > 40 µM | > 40 µM |  |  | 5 ×10⁻⁶ cm/s | 22 µL/min/mg | 47 µL/min/mg | 0.24 | 0.13 | 17 % LBF | 14 % LBF | 0.0001 µM | 2.2 |  | COCc1nn(Cc2ccc(Cn3ccccc3=O)cc2)cc1C(=O)NCc1cc(OC)ccc1-n1cnnn1 [Example 40, N-{[5-methoxy-2-(1,2,3,4-tetrazol-1-yl)phenyl]methyl}-3-(methoxymethyl)-1-({4-[(2-oxopyridin-1-yl)methyl]phenyl}methyl)pyrazole-4-carboxamide]
3 | 0.0007 µM | > 4 µM |  | 10.6 µM | > 4 µM | > 40 µM | 39.2 µM | > 40 µM | 46 µg/mL (≈ 84.4 µM) | 46 µg/mL (≈ 84.4 µM) | 6 ×10⁻⁶ cm/s | 32 µL/min/mg | 72 µL/min/mg | 0.1 | 0.06 | 14 % LBF | 12 % LBF | 0.00016 µM | 6.0 | 53% | COCc1nn(Cc2ccc(Cn3ccccc3=O)cc2)cc1C(=O)NCc1cc(Cl)ccc1-n1cnnn1 [Example 72, N-{[5-chloro-2-(1,2,3,4-tetrazol-1-yl)phenyl]methyl}-3-(methoxymethyl)-1-({4-[(2-oxopyridin-1-yl)methyl]phenyl}methyl)pyrazole-4-carboxamide]

The remaining lines, values behind:

Row | SMILES | IC50 [1] | IC50 [2] | inhibition at 40 µM [3] | IC50 [3] | IC50 [4] | IC50 [5] | IC50 [6] | IC50 [7] | solubility [8, 17] | solubility [8, 18] | Papp at 1 h, 50 μM [9] | microsomal CLint at 5 μM [10] | microsomal CLint at 5 μM [11] | fraction unbound at 5 h, 5 μM [12] | fraction unbound at 5 h, 5 μM [13] | Predicted in vivo human Clp (% LBF) [14] | Predicted in vivo rat Clp (% LBF) [15] | Ki [16] | Alpha [16] | inhibition at 12.7 µM ([3]; 12.7 μM test compound)
4 | COc1ccc(F)c(CNC(=O)c2cn(Cc3ccc(Cn4ccccc4=O)cc3)nc2N)c1F [Example 35, 3-amino-N-[(2,6-difluoro-3-methoxyphenyl)methyl]-1-({4-[(2-oxopyridin-1-yl)methyl]phenyl}methyl)pyrazole-4-carboxamide] | 0.0017 µM | > 40 µM | 5% | > 40 µM | > 40 µM | > 40 µM | > 40 µM | > 40 µM | 40 µg/mL (≈ 83.4 µM) | 20 µg/mL (≈ 41.7 µM) | 7 ×10⁻⁶ cm/s | 24 µL/min/mg | 15 µL/min/mg | 0.04 | 0.01 | 7 % LBF | 1 % LBF |  |  | 
5 | COc1ccc(C#N)c(CNC(=O)c2cn(Cc3ccc(Cn4ccccc4=O)cc3)nc2N)c1F [Example 43, 3-amino-N-[(6-cyano-2-fluoro-3-methoxyphenyl)methyl]-1-({4-[(2-oxopyridin-1-yl)methyl]phenyl}methyl)pyrazole-4-carboxamide] | 0.0006 µM | > 4 µM | 27% | > 40 µM | > 4 µM | > 40 µM | > 40 µM | > 40 µM |  |  | 2 ×10⁻⁶ cm/s | 10 µL/min/mg | 5 µL/min/mg | 0.12 | 0.08 | 8 % LBF | 2 % LBF |  |  | 
6 | COCc1nn(Cc2ccc(Cn3cc(F)ccc3=O)cc2)cc1C(=O)NCc1c(C#N)ccc(OC)c1F [Example 53, N-[(6-cyano-2-fluoro-3-methoxyphenyl)methyl]-1-({4-[(5-fluoro-2-oxopyridin-1-yl)methyl]phenyl}methyl)-3-(methoxymethyl)pyrazole-4-carboxamide] | 0.0017 µM | > 40 µM | 5% | > 40 µM | > 40 µM | > 40 µM | > 40 µM | > 40 µM |  |  | 13 ×10⁻⁶ cm/s | 104 µL/min/mg | 77 µL/min/mg | 0.1 | 0.04 | 35 % LBF | 10 % LBF |  |  | 

Reference: patent publication US11180484B2, “Pyrazole derivatives as plasma kallikrein inhibitors” (KALVISTA PHARMACEUTICALS LIMITED, priority 2016, dated 2021)
